Measured values reported in patent publication US11141419B1, “Use of iminosugars as prophylactic and therapy against COVID-19 / SARS-CoV-2” (priority 2020, dated 2021).
Read-outs that look alike come from different tables or passages of the source.

Assays:
SARS-CoV-2/WA/1 virus = assay: Plaque reduction assay in Vero E6 cells; format: cell-based; settings: Vero E6 cells pre-treated and overlaid with iminosugar, 40 PFU, 48 hrs, duplicate wells, read-out: IC50 against SARS-CoV-2 (plaque formation)
SARS-CoV-2 virus = format: cell-based; settings: Vero E6, MOI 0.01, 100 μM iminosugar, 24 hrs, supernatant
[1] = system: Lentiviruses expressing SARS-CoV-2 spike glycoprotein (Wuhan isolate, P.1, B.1.1.7, B.1.351); format: cell-based; settings: 100 μM iminosugar, 24 hrs pre-treatment, luciferase after 48 hrs
SARS-CoV-2 = format: cell-based; settings: Huh7.0, lower MOI (0.1), 250 μM, three days
Huh7.0 human cells = assay: Cell viability (MTS assay) of uninfected Huh7.0 cells; settings: various concentrations, three days
COVID-19 = settings: repurposed drug regimens; cited from earlier work
[2] = Severe acute respiratory syndrome coronavirus 2, Vero C1008

Compound | SARS-CoV-2 viral RNA production / viral genome copy number (N1 gene PCR) (SARS-CoV-2 virus) | pseudotyped SARS-CoV-2 viral entry into human 293t-hACE2 cells [1] | IC50 (SARS-CoV-2/WA/1 virus; [2]) [µM] | effect on hospitalized COVID-19 patients (COVID-19) | also measured
O[C@H]1[C@H](O)[C@@H](O)CN2CC[C@H](O)[C@H]12 [Castanospermine, castanospermine] | significantly reduced | significant decrease | – | – | IC50 (SARS-CoV-2/WA/1 virus): 91 µM
C[C@H]1O[C@H](O[C@H]2[C@H](O)[C@@H](O)[C@@H](O[C@H]3[C@H](O)[C@@H](O)C(O)O[C@@H]3CO)O[C@@H]2CO)[C@H](O)[C@@H](O)[C@@H]1N[C@H]1C=C(CO)[C@@H](O)[C@H](O)[C@H]1O (some centres unmarked) [Acarbose, acarbose] | – | – | 105 | – | –
OCCN1C[C@H](O)[C@@H](O)[C@H](O)[C@H]1CO [Miglitol, miglitol] | significantly reduced | significant decrease | 135 | – | cell survival (SARS-CoV-2): completely restored; toxicity to human cells (Huh7.0 human cells): without toxicity
CCN(CCO)CCCC(C)Nc1ccnc2cc(Cl)ccc12 (centres unmarked) [hydroxychloroquine] | – | – | – | little or no effect | –
Cc1cccc(C)c1OCC(=O)N[C@@H](Cc1ccccc1)[C@@H](O)C[C@H](Cc1ccccc1)NC(=O)[C@H](C(C)C)N1CCCNC1=O [lopinavir] | – | – | – | little or no effect | –
